The series is described as follows: Solubility of the carrier compound. It counts as physicochemical.

In brackets after ≈: the same amount, converted by molar mass. Read-outs that look alike come from different tables or passages of the source.

As a reminder, the solubility is the concentration that dissolves in the medium under given conditions.

With `CC(C(=O)[O-])c1ccc(NC(=O)c2ccccc2O)cc1.[Na+]` (centres unmarked) [Example 2, sodium 2-(4-(N-salicyloyl)aminophenyl)propionate], where the note is “clear solution, pH=6.85”, the solubility stood at 200 mg/mL. Consider `CC(C(=O)O)c1ccc(NC(=O)c2ccccc2O)cc1` (centres unmarked) [Example 1, 2-(4-(N-salicyloyl)aminophenyl)propionic acid], for which the solubility (aqueous NaOH solution, aqueous buffer, thermodynamic from solid, 200 mg+350 μl 2N NaOH+650 μl H2O, pH 7.67, read-out: Solubility) was 200 mg/mL (≈ 701 mM).
